Target: T1, WIZ protein (HiBit-WIZ fusion protein) (Homo sapiens, UniProt O95785+Q96SW2)
T1 construct: expressed in transfected cells
Experiment: Quantification of WIZ protein levels in HiBit tag fusion protein assay (WIZ HiBit assay in 293T cells)
Assay type: cell-based
Settings: for Dmax at 25 µM / remaining activity at 25 µM: HEK-293T, 293T cells; for Dmax at 25 µM: 100 − Amax, read-out: % degradation of WIZ (100 − Amax); for remaining activity at 25 µM: DMSO-normalized, curve-fitted percentage of WIZ-HiBit remaining at 25 uM, read-out: WIZ Amax; for DC50: WIZ HiBit assay in 293T cells, 10-point, 5-fold dose response, highest concentration 25 μM, about 18 hours, read-out: WIZ AC50
In short: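 Luminescence after LgBit complementation quantified remaining HiBit-WIZ in lysates of single-copy stable 293T lines. Cells dosed ~18 h at 37 °C with 10-point, 5-fold dilutions (highest 25 μM); DMSO set to 100%, fitted curve gave % remaining at 25 μM (Amax).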

T1 sequence (O95785 whole entry, the tested form may be a part): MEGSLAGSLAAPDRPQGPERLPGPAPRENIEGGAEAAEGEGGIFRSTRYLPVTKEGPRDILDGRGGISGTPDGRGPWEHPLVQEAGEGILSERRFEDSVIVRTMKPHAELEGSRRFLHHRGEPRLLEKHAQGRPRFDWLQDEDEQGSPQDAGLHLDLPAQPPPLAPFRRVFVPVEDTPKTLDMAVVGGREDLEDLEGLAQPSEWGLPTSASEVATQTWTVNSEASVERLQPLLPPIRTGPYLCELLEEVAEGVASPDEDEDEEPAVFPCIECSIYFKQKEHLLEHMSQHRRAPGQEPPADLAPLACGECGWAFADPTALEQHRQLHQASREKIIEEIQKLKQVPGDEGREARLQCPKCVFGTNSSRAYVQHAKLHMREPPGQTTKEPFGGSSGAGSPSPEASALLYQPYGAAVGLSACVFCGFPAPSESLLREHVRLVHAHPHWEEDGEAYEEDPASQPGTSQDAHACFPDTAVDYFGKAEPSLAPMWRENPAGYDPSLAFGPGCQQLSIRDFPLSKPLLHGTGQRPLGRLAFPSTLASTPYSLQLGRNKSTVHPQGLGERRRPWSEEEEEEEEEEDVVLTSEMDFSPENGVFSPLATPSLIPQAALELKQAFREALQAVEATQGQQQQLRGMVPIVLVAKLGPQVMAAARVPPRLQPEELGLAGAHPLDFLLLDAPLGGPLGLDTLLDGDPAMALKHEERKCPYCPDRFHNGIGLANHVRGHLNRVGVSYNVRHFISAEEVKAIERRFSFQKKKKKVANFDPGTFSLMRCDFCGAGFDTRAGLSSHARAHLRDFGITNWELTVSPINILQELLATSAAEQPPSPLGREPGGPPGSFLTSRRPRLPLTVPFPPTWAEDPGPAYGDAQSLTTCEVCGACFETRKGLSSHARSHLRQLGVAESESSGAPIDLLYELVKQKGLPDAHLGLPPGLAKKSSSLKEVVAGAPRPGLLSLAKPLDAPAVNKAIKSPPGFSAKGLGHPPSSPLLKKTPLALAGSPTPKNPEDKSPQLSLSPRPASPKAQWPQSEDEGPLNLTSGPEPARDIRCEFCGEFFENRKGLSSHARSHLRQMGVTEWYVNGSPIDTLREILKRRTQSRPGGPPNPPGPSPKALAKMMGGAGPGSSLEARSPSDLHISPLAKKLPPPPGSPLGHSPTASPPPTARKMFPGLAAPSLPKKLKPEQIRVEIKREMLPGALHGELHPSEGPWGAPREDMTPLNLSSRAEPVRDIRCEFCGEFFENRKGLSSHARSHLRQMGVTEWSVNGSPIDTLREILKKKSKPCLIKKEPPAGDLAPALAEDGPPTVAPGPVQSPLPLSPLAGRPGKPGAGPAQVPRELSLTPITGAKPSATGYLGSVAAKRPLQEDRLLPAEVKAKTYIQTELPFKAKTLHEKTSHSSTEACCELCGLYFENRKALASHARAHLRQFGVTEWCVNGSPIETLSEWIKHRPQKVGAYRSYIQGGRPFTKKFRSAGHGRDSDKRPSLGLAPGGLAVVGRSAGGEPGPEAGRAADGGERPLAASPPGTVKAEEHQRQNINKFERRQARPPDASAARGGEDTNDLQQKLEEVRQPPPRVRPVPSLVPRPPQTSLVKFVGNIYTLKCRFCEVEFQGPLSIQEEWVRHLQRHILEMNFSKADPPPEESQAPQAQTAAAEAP
T1 sequence (Q96SW2 whole entry, the tested form may be a part): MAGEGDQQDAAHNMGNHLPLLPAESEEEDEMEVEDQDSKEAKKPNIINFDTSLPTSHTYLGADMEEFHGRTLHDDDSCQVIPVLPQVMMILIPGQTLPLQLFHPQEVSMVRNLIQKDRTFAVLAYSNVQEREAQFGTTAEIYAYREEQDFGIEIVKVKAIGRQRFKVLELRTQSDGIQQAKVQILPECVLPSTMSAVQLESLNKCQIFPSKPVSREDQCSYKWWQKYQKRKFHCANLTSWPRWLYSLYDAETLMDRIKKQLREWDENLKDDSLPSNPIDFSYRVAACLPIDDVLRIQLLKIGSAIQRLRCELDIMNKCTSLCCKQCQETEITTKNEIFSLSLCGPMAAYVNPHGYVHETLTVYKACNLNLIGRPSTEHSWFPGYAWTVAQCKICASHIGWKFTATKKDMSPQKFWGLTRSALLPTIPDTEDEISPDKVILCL
T1 sequence (Q16531 whole entry partner, the tested form may be a part): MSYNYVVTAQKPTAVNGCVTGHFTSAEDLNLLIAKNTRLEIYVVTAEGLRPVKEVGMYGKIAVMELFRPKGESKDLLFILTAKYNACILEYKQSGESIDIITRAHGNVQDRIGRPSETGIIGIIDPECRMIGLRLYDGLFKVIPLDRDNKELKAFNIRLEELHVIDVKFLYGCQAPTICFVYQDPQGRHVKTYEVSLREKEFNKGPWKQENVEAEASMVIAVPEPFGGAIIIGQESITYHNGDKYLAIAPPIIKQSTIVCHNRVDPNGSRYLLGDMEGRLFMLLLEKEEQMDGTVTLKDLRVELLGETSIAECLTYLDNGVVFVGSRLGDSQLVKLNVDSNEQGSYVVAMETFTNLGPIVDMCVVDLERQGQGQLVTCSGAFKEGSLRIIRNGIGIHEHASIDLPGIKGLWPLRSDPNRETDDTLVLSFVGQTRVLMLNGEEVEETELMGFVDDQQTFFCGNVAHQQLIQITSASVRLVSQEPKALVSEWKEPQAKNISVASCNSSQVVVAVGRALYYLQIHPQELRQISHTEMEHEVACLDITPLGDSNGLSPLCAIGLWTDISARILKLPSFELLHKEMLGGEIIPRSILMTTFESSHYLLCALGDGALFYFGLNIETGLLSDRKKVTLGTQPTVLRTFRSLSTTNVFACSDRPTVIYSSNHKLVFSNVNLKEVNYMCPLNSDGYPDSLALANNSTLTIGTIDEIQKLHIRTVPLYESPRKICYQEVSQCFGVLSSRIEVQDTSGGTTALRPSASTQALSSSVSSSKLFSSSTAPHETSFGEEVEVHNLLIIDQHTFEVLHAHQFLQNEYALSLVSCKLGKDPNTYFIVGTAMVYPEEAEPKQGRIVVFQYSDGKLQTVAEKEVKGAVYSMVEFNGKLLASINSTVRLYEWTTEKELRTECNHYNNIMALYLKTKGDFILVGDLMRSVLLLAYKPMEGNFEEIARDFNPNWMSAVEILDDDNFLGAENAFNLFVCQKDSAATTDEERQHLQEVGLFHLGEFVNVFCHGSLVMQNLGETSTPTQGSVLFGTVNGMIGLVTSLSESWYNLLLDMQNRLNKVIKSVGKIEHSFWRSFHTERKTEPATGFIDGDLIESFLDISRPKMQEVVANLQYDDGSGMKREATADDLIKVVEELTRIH

Structure (SMILES): CC(C)CN1CCN(Cc2ccn3ncc(N4CCC(=O)NC4=O)c3c2)CC1 [Example 186, 1-(5-((4-isobutylpiperazin-1-yl)methyl)pyrazolo[1,5-a]pyridin-3-yl)dihydropyrimidine-2,4(1H,3H)-dione]
- Dmax at 25 µM: 79%
- remaining activity at 25 µM: 21%
- DC50: 76 nM

Structure (SMILES): O=C1CCN(c2cnn3ccc(CN4CCN(CCC5CCCCC5)CC4)cc23)C(=O)N1 [Example 187, 1-(5-((4-(2-cyclohexylethyl)piperazin-1-yl)methyl)pyrazolo[1,5-a]pyridin-3-yl)dihydropyrimidine-2,4(1H,3H)-dione]
- Dmax at 25 µM: 80%
- remaining activity at 25 µM: 20%
- DC50: 20 nM

Structure (SMILES): O=C1CCN(c2cnn3ccc(CN4CCN(CC5CCC5)CC4)cc23)C(=O)N1 [Example 188, 1-(5-((4-(cyclobutylmethyl)piperazin-1-yl)methyl)pyrazolo[1,5-a]pyridin-3-yl)dihydropyrimidine-2,4(1H,3H)-dione]
- Dmax at 25 µM: 77%
- remaining activity at 25 µM: 23%
- DC50: 71 nM

Structure (SMILES): O=C1CCN(c2cnn3ccc(CN4CCN(CC5CC5)CC4)cc23)C(=O)N1 [Example 189, 1-(5-((4-(cyclopropylmethyl)piperazin-1-yl)methyl)pyrazolo[1,5-a]pyridin-3-yl)dihydropyrimidine-2,4(1H,3H)-dione]
- Dmax at 25 µM: 71%
- remaining activity at 25 µM: 29%
- DC50: 191 nM

Structure (SMILES): Cc1cccc(CN2CCN(Cc3ccn4ncc(N5CCC(=O)NC5=O)c4c3)CC2)c1 [Example 190, 1-(5-((4-(3-methylbenzyl)piperazin-1-yl)methyl)pyrazolo[1,5-a]pyridin-3-yl)dihydropyrimidine-2,4(1H,3H)-dione]
- Dmax at 25 µM: 54%
- remaining activity at 25 µM: 46%
- DC50: 86 nM

Structure (SMILES): O=C1CCN(c2cnn3ccc(CN4CCN(Cc5cccnc5)CC4)cc23)C(=O)N1 [Example 191, 1-(5-((4-(pyridin-3-ylmethyl)piperazin-1-yl)methyl)pyrazolo[1,5-a]pyridin-3-yl)dihydropyrimidine-2,4(1H,3H)-dione]
- Dmax at 25 µM: 50%
- remaining activity at 25 µM: 50%
- DC50: 683 nM

Structure (SMILES): C[C@H]1CN(Cc2ccn3ncc(N4CCC(=O)NC4=O)c3c2)CCN1CC1CCCCC1 [Example 192, (S)-1-(5-((4-(cyclohexylmethyl)-3-methylpiperazin-1-yl)methyl)pyrazolo[1,5-a]pyridin-3-yl)dihydropyrimidine-2,4(1H,3H)-dione]
- Dmax at 25 µM: 86%
- remaining activity at 25 µM: 14%
- DC50: 19 nM

Structure (SMILES): C[C@@H]1CC(CN2CCN(Cc3ccn4ncc(N5CCC(=O)NC5=O)c4c3)CC2)C[C@H](C)O1 (stereo partly drawn) [Example 193, 1-(5-((4-(((2R,6S)-2,6-dimethyltetrahydro-2H-pyran-4-yl)methyl)piperazin-1-yl)methyl)pyrazolo[1,5-a]pyridin-3-yl)dihydropyrimidine-2,4(1H,3H)-dione]
- Dmax at 25 µM: 86%
- remaining activity at 25 µM: 14%
- DC50: 10 nM

Structure (SMILES): O=C1CCN(c2cnn3ccc(CN4CCN(CC56CC7CC(CC(C7)C5)C6)CC4)cc23)C(=O)N1 [Example 194, 1-(5-((4-(((3r,5r,7r)-adamantan-1-yl)methyl)piperazin-1-yl)methyl)pyrazolo[1,5-a]pyridin-3-yl)dihydropyrimidine-2,4(1H,3H)-dione]
- Dmax at 25 µM: 89%
- remaining activity at 25 µM: 11%
- DC50: 3 nM

Structure (SMILES): Cn1nccc1CN1CCN(Cc2ccn3ncc(N4CCC(=O)NC4=O)c3c2)CC1 [Example 195, 1-(5-((4-((1-methyl-1H-pyrazol-5-yl)methyl)piperazin-1-yl)methyl)pyrazolo[1,5-a]pyridin-3-yl)dihydropyrimidine-2,4(1H,3H)-dione]
- Dmax at 25 µM: 48%
- remaining activity at 25 µM: 52%
- DC50: 2050 nM

Structure (SMILES): Cn1cnc(CN2CCN(Cc3ccn4ncc(N5CCC(=O)NC5=O)c4c3)CC2)c1 [Example 196, 1-(5-((4-((1-methyl-1H-imidazol-4-yl)methyl)piperazin-1-yl)methyl)pyrazolo[1,5-a]pyridin-3-yl)dihydropyrimidine-2,4(1H,3H)-dione]
- Dmax at 25 µM: 41%
- remaining activity at 25 µM: 59%
- DC50: 3820 nM

Structure (SMILES): O=C1CCN(c2cnn3ccc(CN4CCN(Cc5cscn5)CC4)cc23)C(=O)N1 [Example 197, 1-(5-((4-(thiazol-4-ylmethyl)piperazin-1-yl)methyl)pyrazolo[1,5-a]pyridin-3-yl)dihydropyrimidine-2,4(1H,3H)-dione]
- Dmax at 25 µM: 40%
- remaining activity at 25 µM: 60%
- DC50: 1140 nM

Structure (SMILES): C[C@H]1CN(Cc2ccn3ncc(N4CCC(=O)NC4=O)c3c2)CCN1CC1CCCCCC1 [Example 198, (S)-1-(5-((4-(cycloheptylmethyl)-3-methylpiperazin-1-yl)methyl)pyrazolo[1,5-a]pyridin-3-yl)dihydropyrimidine-2,4(1H,3H)-dione]
- Dmax at 25 µM: 87%
- remaining activity at 25 µM: 13%
- DC50: 9 nM

Structure (SMILES): C[C@@H]1CC(CN2CCN(Cc3ccn4ncc(N5CCC(=O)NC5=O)c4c3)C[C@@H]2C)C[C@H](C)O1 (stereo partly drawn) [Example 199, 1-(5-(((3S)-4-(((2R,6S)-2,6-dimethyltetrahydro-2H-pyran-4-yl)methyl)-3-methylpiperazin-1-yl)methyl)pyrazolo[1,5-a]pyridin-3-yl)dihydropyrimidine-2,4(1H,3H)-dione]
- Dmax at 25 µM: 86%
- remaining activity at 25 µM: 14%
- DC50: 9 nM

Structure (SMILES): C[C@H]1CN(Cc2ccn3ncc(N4CCC(=O)NC4=O)c3c2)CCN1CC1CCC(C)(C)CC1 [Example 200, (S)-1-(5-((4-((4,4-dimethylcyclohexyl)methyl)-3-methylpiperazin-1-yl)methyl)pyrazolo[1,5-a]pyridin-3-yl)dihydropyrimidine-2,4(1H,3H)-dione]
- Dmax at 25 µM: 90%
- remaining activity at 25 µM: 10%
- DC50: 8 nM

Structure (SMILES): C[C@H]1CN(Cc2ccn3ncc(N4CCC(=O)NC4=O)c3c2)CCN1C[C@H]1CC[C@H](O)CC1 [Example 201, 1-(5-(((S)-4-(((1r,4S)-4-hydroxycyclohexyl)methyl)-3-methylpiperazin-1-yl)methyl)pyrazolo[1,5-a]pyridin-3-yl)dihydropyrimidine-2,4(1H,3H)-dione]
- Dmax at 25 µM: 88%
- remaining activity at 25 µM: 12%
- DC50: 20 nM

Structure (SMILES): C[C@H]1CN(Cc2ccn3ncc(N4CCC(=O)NC4=O)c3c2)CCN1CC1CCOCC1 [Example 202]
- Dmax at 25 µM: 85%
- remaining activity at 25 µM: 15%
- DC50: 5 nM

Structure (SMILES): CC(C)CCN1CCN(Cc2ccn3ncc(N4CCC(=O)NC4=O)c3c2)C[C@@H]1C [Example 204]
- Dmax at 25 µM: 84%
- remaining activity at 25 µM: 16%
- DC50: 51 nM

Structure (SMILES): C[C@H]1CN(Cc2ccn3ncc(N4CCC(=O)NC4=O)c3c2)CCN1CC1CC(F)(F)C1 [Example 205]
- Dmax at 25 µM: 82%
- remaining activity at 25 µM: 18%
- DC50: 24 nM

Structure (SMILES): C[C@H]1CN(Cc2ccn3ncc(N4CCC(=O)NC4=O)c3c2)CCN1CCC1CCOCC1 [Example 206]
- Dmax at 25 µM: 78%
- remaining activity at 25 µM: 22%
- DC50: 193 nM

Structure (SMILES): C[C@H]1CN(Cc2ccn3ncc(N4CCC(=O)NC4=O)c3c2)CCN1Cc1cccnc1 [Example 208]
- Dmax at 25 µM: 60%
- remaining activity at 25 µM: 40%
- DC50: 580 nM

Structure (SMILES): C[C@H]1CN(Cc2ccn3ncc(N4CCC(=O)NC4=O)c3c2)CCN1CC1CCCO1 (stereo partly drawn) [Example 209]
- Dmax at 25 µM: 74%
- remaining activity at 25 µM: 26%
- DC50: 380 nM

Structure (SMILES): CO[C@H]1CC[C@@H](CN2CCN(Cc3ccn4ncc(N5CCC(=O)NC5=O)c4c3)C[C@@H]2C)CC1 [Example 211, 1-(5-(((S)-4-(((1s,4R)-4-methoxycyclohexyl)methyl)-3-methylpiperazin-1-yl)methyl)pyrazolo[1,5-a]pyridin-3-yl)dihydropyrimidine-2,4(1H,3H)-dione]
- Dmax at 25 µM: 86%
- remaining activity at 25 µM: 14%
- DC50: 33 nM

Structure (SMILES): C[C@H]1CN(Cc2ccn3ncc(N4CCC(=O)NC4=O)c3c2)CCN1CC1CCCC1 [Example 212]
- Dmax at 25 µM: 84%
- remaining activity at 25 µM: 16%
- DC50: 29 nM

Structure (SMILES): C[C@H]1CN(Cc2ccn3ncc(N4CCC(=O)NC4=O)c3c2)CCN1CC1CCC1 [Example 213, (S)-1-(5-((4-(cyclobutylmethyl)-3-methylpiperazin-1-yl)methyl)pyrazolo[1,5-a]pyridin-3-yl)dihydropyrimidine-2,4(1H,3H)-dione]
- Dmax at 25 µM: 81%
- remaining activity at 25 µM: 19%
- DC50: 48 nM

Structure (SMILES): C[C@@H]1CN(Cc2ccn3ncc(N4CCC(=O)NC4=O)c3c2)CCN1CC1CCCCC1 [Example 214]
- Dmax at 25 µM: 65%
- remaining activity at 25 µM: 35%
- DC50: 151 nM

Structure (SMILES): C[C@@H]1CN(Cc2ccn3ncc(N4CCC(=O)NC4=O)c3c2)CCN1Cc1cccnc1 [Example 215]
- Dmax at 25 µM: 19%
- remaining activity at 25 µM: 81%
- DC50: 2620 nM

Structure (SMILES): CC(C)CN1CCN(Cc2ccn3ncc(N4CCC(=O)NC4=O)c3c2)C[C@H]1C [Example 216]
- Dmax at 25 µM: 65%
- remaining activity at 25 µM: 35%
- DC50: 89 nM

Structure (SMILES): C[C@@H]1CN(Cc2ccn3ncc(N4CCC(=O)NC4=O)c3c2)CCN1CC1CCOCC1 [Example 217]
- Dmax at 25 µM: 75%
- remaining activity at 25 µM: 25%
- DC50: 92 nM

Structure (SMILES): C[C@@H]1CN(CC2CCCCC2)CCN1Cc1ccn2ncc(N3CCC(=O)NC3=O)c2c1 [Example 218]
- Dmax at 25 µM: 71%
- remaining activity at 25 µM: 29%
- DC50: 68 nM

Structure (SMILES): C[C@@H]1CN(CC2CCOCC2)CCN1Cc1ccn2ncc(N3CCC(=O)NC3=O)c2c1 [Example 219]
- Dmax at 25 µM: 75%
- remaining activity at 25 µM: 25%
- DC50: 212 nM

Structure (SMILES): CC(C)CN1CCN(Cc2ccn3ncc(N4CCC(=O)NC4=O)c3c2)[C@H](C)C1 [Example 220]
- Dmax at 25 µM: 66%
- remaining activity at 25 µM: 34%
- DC50: 133 nM

From patent US11787785B2 (NOVARTIS AG, priority 2021, dated 2023)
